This note sets out measurements from patent publication US20130023555A1, “KINASE INHIBITOR WITH IMPROVED SOLUBILITY PROFILE” (Abbott Laboratories, priority 2011, published 2013).

One data set deals with T1, cKIT (Homo sapiens, UniProt P10721).
T1 construct: GST
The data set is described as follows: HTRF in vitro kinase assay, cKIT. In kind it is biochemical. Conditions: 1 mM ATP. Here is the method: To determine the activity of the various kinases, a homogenous time-resolved fluorescence (HTRF) in vitro kinase assay was used. (Mathis, G., HTRF(R) Technology. J Biomol Screen, 1999. 4(6): p. 309-314; Alfred J. Kolb, Paul V. Kaplita, David J. Hayes, Young-Whan Park, Christine Pernell, John S. Major and Gerard Mathis, Drug Discovery Today, 1998, 3, 333-342.)
For example for KDR, cKIT, FLT1, CSF1R and FTL3, purified enzyme was mixed with 0.5 μM N-biotinylated substrate (Biotin-Ahx-[…]-amide (SEQ. ID. 1)), various concentrations of inhibitor in reaction buffer (50 mM HEPES, pH 7.1, 10 mM MgCl2, 2 mM MnCl2, 0.1% BSA and 1 mM DTT, 40 μL final volume), ATP (1 mM final conc.) in a black 384-well plate. After 60 minutes incubation at room temperature, the reaction was quenched by addition of a buffered EDTA solution (final approximate concentrations: 30 mM EDTA, 0.1% BSA, 0.1% Triton X-100 and 0.24M KF) and a solution of revelation agents (to give 0.084 ng/well streptavidin-XL-665 (Cis-Bio) and 6.5 ng/well antiphsophotyrosine mAb PT66-K Europium kryptate) was added to the reaction mixture. The quenched reaction was allowed to stand at room temperature for 3 hours and was then read in a time-resolved fluorescence detector (InVision, Perkin-Elmer) at 620 nm and 665 nm sequentially with excitation. The ratio between the signal of 620 nm and 665 nm was used in the calculation of the IC50.
Background: Time-resolved FRET reads energy transfer from a long-lived donor to a nearby acceptor.

The next data set has as its target T2, CYP3A4 (Homo sapiens, UniProt P08684).
T2 construct: The incubations consisted of human liver microsomal protein at 0.4 mg/ml; from tissue; host or cells: human liver microsomes
The data set is described as follows: CYP 3A4 Assay (Luc, luminescence, human liver microsomes). In kind it is in vitro ADME. Conditions: human liver microsomes 0.4 mg/mL, substrate LUC-LIPA. Here is the method:
Each assay was preformed in ½ well plates. Test compounds were examined at six concentrations in DMSO that were serial diluted to: 2, 0.6, 0.2, 0.07, 0.02, and 0.007 mM (from left to right) and at 100×; 0.5 ul of these dilutions were added to two empty assay plates (resulting in final assay concentrations of 20, 6, 2, 0.7, 0.2, and 0.07 uM. The control and vehicle were added to the plate at 100× with the same dilution scheme.
The incubations consisted of human liver microsomal protein at 0.4 mg/ml in 100 mM KPO4 buffer, 125 uM NADPH and Regeneration mix in phosphate buffer at pH 7.4.
CYP3A4 requires a pre-incubation using the following recipe:
• CYP3A4—5 μM LUC-LIPA in 100 mM phosphate buffer pH 7.4 • Assay Procedure for CYP3A4: • 1. 40 uL of the Pre-incubation Mixture was added to all wells of the assay plates. • 2. Plates were pre-incubated for 10 minutes at 37° C., with shaking or rocking. (No pre-read is necessary for the luminescence assays CYP2C9 and CYP3A4). • 3. 10 μL of Substrate Solution was added to all wells of the assay plates. • 4. Plates were incubated for an additional 25 minutes at 37° C., with shaking or rocking. • 5. added 50 μl of stop/developer from respective kits, and incubated for 20 minutes to 2 hours with shaking at room temperature prior to reading. […]
(Microsomes from liver hold many membrane-bound enzymes, among them those of drug oxidation.)

The next data set can be described thus: CLND Solubility Assay. The format is physicochemical. The conditions noted are these: aqueous buffer, kinetic from dmso stock; 35 μM compound in 10 mM phosphate buffer, pH 7.2. The protocol: Chemiluminescent nitrogen detection (CLND) method oxidized the analyte to nitrogen oxide that reacted with ozone to provide a photon of light and was a measure of how much compound was in solution. Compounds must contain nitrogens for this experiment. Nitrogen impurities present in the compound will cause falsely high results. • 1. Compound concentration tested was 35 μM in 10 mM phosphate buffer, 7.2. • 2. Compounds were tested in triplicate. • 3. Compound concentration was determined by comparing readings to a caffeine standard curve. One standard curve was run before and after every test plate. For 3 test plates, four standard curves were generated.
Experimental Procedure: • 1. 5 μl of 5 mM test compound in DMSO was added to three adjacent wells in a plate. • 2. 695 μl of 10 mM phosphate buffer, pH 7.2, was added to each well. • 3. The plates were sealed. • 4. The plates were allowed to sonicate for 1 hour. • 5. The plates were shook on a plate orbital shaker for up to 6 hours. • 6. The plates were spinned at 5000 rpm (6000×G) overnight. • 7. Standard curves were prepared by adding 5 μl of stock solutions to wells according to Caffeine Concentrations for Standard Curve table below. • 8. Buffer (10 mM phosphate buffer, pH 7.2, 695 μl) was added. • 9. The plates were sealed. • 10. The plates were loaded onto a TOC/CLND. • 11. The results were analyzed after the run was completed.
The solubility was determined by comparing the reading generated by analysis of the sample to the standard curve. The value was then divided by the number of nitrogens contained in the compound. Corrections for impurities during the synthesis were included in the number of nitrogens. The resulting value was the reported solubility.

The nature of data set [1]: Determination of Thermodynamic Solubility. The format is physicochemical. Conditions: for solubility: thermodynamic from solid. The protocol:
Aqueous pH 7.4 and PEG 300 samples were tested at 25° C. Excess amount of the bulk drug was weighed out and mixed with an aliquot of target media in a clear glass vial (n=3/solvent). The vial was capped, wrapped with aluminum foil, and tumbled in a 25° C. water bath. When equilibration was completed, the samples were removed from the water bath and the final pH was measured, if applicable. The samples were centrifuged at 25° C. at 3000 rpm for 20 minutes. The supernatant was filtered through 4 mm 0.45 μm PTFE syringe filters. The filtrate was assayed after appropriate dilution (no dilution required for aqueous samples). The concentration of the sample was calculated against a calibration curve for the compound.
Solubility in pH 7.4 buffer was carried out as described above, except samples were not centrifuged before filtration. All other experimental steps were the same. PEG 300 and PEG 400 solubility were done at ambient temperature. Excess amount of the bulk drug was weighed out and mixed with an aliquot of target media in a clear glass vial with a small stir bar (n=3). The vials were placed on the stirrer at ˜500 rpm and allowed to equilibrate over the weekend. Samples were filtered through 13 mm 0.45 μm GHP syringe filters. The filtrate was assayed after appropriate dilutions, and concentrations determined against a calibration curve for the compound.

≈ marks a conversion by molar mass, not a printed value. Where only a bound is given, the exact number is not on record here.

T2 sequence (P08684 whole entry): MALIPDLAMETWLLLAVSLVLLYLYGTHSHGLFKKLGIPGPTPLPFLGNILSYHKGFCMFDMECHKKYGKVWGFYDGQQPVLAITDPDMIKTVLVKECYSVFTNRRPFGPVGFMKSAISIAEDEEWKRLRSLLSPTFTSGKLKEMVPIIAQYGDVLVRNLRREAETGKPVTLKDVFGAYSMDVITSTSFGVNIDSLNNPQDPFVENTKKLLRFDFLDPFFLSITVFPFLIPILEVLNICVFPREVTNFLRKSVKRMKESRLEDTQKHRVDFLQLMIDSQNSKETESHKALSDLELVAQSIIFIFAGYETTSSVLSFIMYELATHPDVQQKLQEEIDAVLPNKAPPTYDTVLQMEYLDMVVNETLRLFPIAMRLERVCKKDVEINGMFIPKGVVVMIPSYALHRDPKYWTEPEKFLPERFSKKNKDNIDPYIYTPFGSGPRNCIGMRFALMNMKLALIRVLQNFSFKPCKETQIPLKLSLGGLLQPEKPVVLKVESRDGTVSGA
T1 sequence (P10721 544-976 limits assumed): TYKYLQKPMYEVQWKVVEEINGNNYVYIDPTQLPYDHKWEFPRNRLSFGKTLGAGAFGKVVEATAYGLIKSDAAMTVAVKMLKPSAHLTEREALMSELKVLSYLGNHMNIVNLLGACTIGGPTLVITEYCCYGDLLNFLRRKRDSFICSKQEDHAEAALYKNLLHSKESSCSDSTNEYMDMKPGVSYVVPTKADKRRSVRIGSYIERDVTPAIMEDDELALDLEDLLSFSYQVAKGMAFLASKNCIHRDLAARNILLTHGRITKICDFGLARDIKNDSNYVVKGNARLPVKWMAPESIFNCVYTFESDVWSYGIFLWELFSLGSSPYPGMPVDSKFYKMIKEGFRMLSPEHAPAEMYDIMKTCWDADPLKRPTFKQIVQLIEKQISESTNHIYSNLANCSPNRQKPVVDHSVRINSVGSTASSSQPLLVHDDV

One may read the IC50 as the concentration that inhibits the measured activity by half. Read a low IC50 as greater potency. As a reminder, the solubility is how much of the substance goes into solution per volume. `CCN(CC)CCCNC(=O)c1cnc(N)c2c(-c3ccc(NC(=O)Nc4cccc(F)c4)cc3)csc12` [Example 1, 4-amino-N-[3-(diethylamino)propyl]-3-(4-{[(3-fluorophenyl)carbamoyl]amino}phenyl)thieno[3,2-c]pyridine-7-carboxamide]: the concentration for half-maximal inhibition (IC50) was 35 nM on cKIT and above 20000 nM against CYP3A4. Further, the solubility in the data set “CLND Solubility Assay” came to 70.8 µM (≈ 37.8 µg/mL); in data set [1] (PEG 300, 25 °C, organic solvent or mixture, PEG 300, Example 2 at 25° C., Example 1 at ambient temperature, read-out: Solubility (PEG300)) it was 132 mg/mL (≈ 247 mM); in data set [1] (PEG 400, organic solvent or mixture, PEG 400, ambient temperature, read-out: Solubility PEG 400), 124 mg/mL (≈ 232 mM); in data set [1] (phosphate buffer, 25 °C, pH 7.4, aqueous buffer, 50 mM phosphate pH 7.4 buffer, 25° C., read-out: Solubility pH 7.4) it was 0.0171 mg/mL (≈ 0.032 mM). Further, the “Solubility (PEG300)” value in data set [1] (PEG 300, Example 2 at 25° C., Example 1 at ambient temperature) is recorded as above 125 mg/mL.
